Laboratory results as given in patent US8119633B2, “Substituted sulfonamide compounds” (Gruenenthal GmbH, priority 2007, dated 2012).

Experiments:
[1] = biological target: T1, human bradykinin receptor 1 (B1R) (Homo sapiens, UniProt P46663); assay: Functional study on the bradykinin receptor 1 (B1R), human: FLIPR Ca2+ influx assay; format: cell-based; settings: test substance 10 μM, CHO K1 cells transfected with human B1R, Lys-Des-Arg9-bradykinin at EC80, Ca2+ influx (Fluo-4, FLIPR); for inhibition at 10 µM: read-out: B1R antagonism, human [10 μM] % inhibition
T1 construct: expressed in transfected cells; host or cells: CHO K1 cells
T1 sequence (P46663 1-353): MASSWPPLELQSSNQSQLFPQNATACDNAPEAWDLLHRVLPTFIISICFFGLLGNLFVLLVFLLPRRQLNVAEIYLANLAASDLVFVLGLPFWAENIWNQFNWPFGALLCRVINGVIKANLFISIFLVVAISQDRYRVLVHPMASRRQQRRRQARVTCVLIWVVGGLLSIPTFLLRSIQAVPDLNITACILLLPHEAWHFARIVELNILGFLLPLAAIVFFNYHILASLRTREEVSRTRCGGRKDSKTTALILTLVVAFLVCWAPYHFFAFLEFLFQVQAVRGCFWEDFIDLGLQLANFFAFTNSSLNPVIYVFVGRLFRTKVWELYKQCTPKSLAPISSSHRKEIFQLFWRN
Method in brief: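 CHO K1 cells stably expressing human B1R were loaded with Fluo-4, and Ca2+ fluorescence was read on FLIPR (ex 488/em 540 nm). Compound was added first (10 μM for % activation against Lys-Des-Arg9-bradykinin ≥0.5 nM). After 10-20 min, Lys-Des-Arg9-bradykinin was added at EC80 for % inhibition; IC50 came from concentration series, n=2-3, N≥2.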

[2] = biological target: T2, bradykinin receptor 1 (B1R) of the rat (Rattus norvegicus, UniProt P97583); assay: Functional study on the bradykinin receptor 1 (B1R), rat: FLIPR Ca2+ influx assay; format: cell-based; settings: test substance 10 μM, CHO K1 cells transfected with rat B1R, Des-Arg9-bradykinin at EC80, Ca2+ influx (Fluo-4, FLIPR); for inhibition at 10 µM: read-out: B1R antagonism, rat [10 μM] % inhibition
T2 construct: expressed in transfected cells; host or cells: CHO K1 cells
T2 sequence (P97583 1-337): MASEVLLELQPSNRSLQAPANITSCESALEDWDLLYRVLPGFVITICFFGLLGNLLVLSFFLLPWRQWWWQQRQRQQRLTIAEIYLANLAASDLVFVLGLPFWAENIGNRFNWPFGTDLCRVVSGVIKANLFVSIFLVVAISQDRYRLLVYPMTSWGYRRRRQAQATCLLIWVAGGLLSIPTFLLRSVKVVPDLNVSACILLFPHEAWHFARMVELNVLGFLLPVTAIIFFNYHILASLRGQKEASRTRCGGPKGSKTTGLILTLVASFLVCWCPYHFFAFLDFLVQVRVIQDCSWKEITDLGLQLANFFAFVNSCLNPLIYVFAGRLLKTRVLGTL
Method in brief: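 CHO K1 cells stably expressing rat B1R, Fluo-4-loaded, read on FLIPR (ex 488/em 540 nm, peak fluorescence). Test substances added first (agonism vs 10 μM Des-Arg9-bradykinin), then after 10-20 min Des-Arg9-bradykinin at EC80; % inhibition and IC50 from concentration series, n=2-3, N≥2.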

human μ-opiate receptor = biological target: T3, human μ-opiate receptor (Homo sapiens, UniProt P35372); assay: Affinity for the human μ-opiate receptor ([3H]-naloxone displacement, SPA); settings: test substance 1 μmol/l, inhibition of specific [3H]-naloxone binding, CHO-K1 receptor membrane preparation; for inhibition at 1 µM: read-out: μ-Opioid receptor [1 μM] % inhibition
T3 construct: purchased PerkinElmer Life Sciences, Zaventem, Belgium RB-HOM; host or cells: CHO-K1 cells (membrane preparation)
Method in brief: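 Membranes from CHO-K1 cells expressing human μ-opiate receptor were incubated 90 min at room temperature with 1 nmol/l [3H]-naloxone and WGA-SPA beads in 50 mmol/l Tris-HCl with 0.06% BSA; non-specific binding was defined with 100 μmol/l naloxone. Percent inhibition was measured at 1 μmol/l, IC50 was derived from concentration series, and Ki was obtained by Cheng-Prusoff.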

T3 sequence (P35372 whole entry): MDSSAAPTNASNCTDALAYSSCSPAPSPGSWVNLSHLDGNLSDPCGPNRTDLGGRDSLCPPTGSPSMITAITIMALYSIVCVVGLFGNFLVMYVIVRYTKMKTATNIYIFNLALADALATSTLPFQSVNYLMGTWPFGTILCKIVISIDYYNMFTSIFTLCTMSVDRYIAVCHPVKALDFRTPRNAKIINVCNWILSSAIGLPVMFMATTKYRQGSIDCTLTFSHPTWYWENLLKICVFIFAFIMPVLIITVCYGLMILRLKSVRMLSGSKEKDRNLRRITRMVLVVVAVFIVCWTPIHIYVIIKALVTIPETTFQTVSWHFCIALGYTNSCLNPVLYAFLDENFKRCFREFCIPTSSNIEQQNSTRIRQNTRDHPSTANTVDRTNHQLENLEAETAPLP

Compound	inhibition at 10 µM [1] [%]	inhibition at 10 µM [2] [%]	inhibition at 1 µM (human μ-opiate receptor) [%]	B1R antagonism, human [10 μM] % inhibition [1] [%]	B1R antagonism, rat [10 μM] % inhibition [2] [%]	μ-Opioid receptor [1 μM] % inhibition (human μ-opiate receptor) [%]
O=C(CC1C(=O)NCCN1S(=O)(=O)c1ccc(Cl)cc1Cl)NCC1CCC(C(CCc2ccccc2)N2CCCC2)CC1 (stereo not drawn) [Example 57, 2-[1-(2,4-dichloro-benzenesulfonyl)-3-oxo-piperazin-2-yl]-N-[4-(3-phenyl-1-pyrrolidin-1-yl-propyl)-cyclohexylmethyl]-acetamide]	104	27	25			
CN1CCN(C(c2ccc(F)cc2)C2CCN(C(=O)CC3CCCCN3S(=O)(=O)c3cccc(C(F)(F)F)c3)CC2)CC1 (stereo not drawn) [Example 109, 1-(4-((4-fluorophenyl)(4-methylpiperazin-1-yl)methyl)piperidin-1-yl)-2-(1-(3-(trifluoromethyl)phenylsulfonyl)piperidin-2-yl)ethanone]	102	99	5			
O=C(CC1C(=O)Nc2ccccc2N1S(=O)(=O)c1ccc(Cl)c(Cl)c1)NCC1CCC(C(CCc2ccccc2)N2CCOCC2)CC1 (stereo not drawn) [Example 65, 2-[1-(3,4-dichloro-benzenesulfonyl)-3-oxo-1,2,3,4-tetrahydro-quinoxalin-2-yl]-N-[4-(1-morpholin-4-yl-3-phenyl-propyl)-cyclohexylmethyl]-acetamide]	103	24	9			
Cc1cc(S(=O)(=O)N2CCCCC2CCC(=O)N2CCC(C(CCc3ccccc3)N3CCN(C)CC3)CC2)c(C)cc1Cl (stereo not drawn) [Example 119, 3-(1-(4-chloro-2,5-dimethylphenylsulfonyl)piperidin-2-yl)-1-(4-(1-(4-methyl-piperazin-1-yl)-3-phenylpropyl)piperidin-1-yl)propan-1-one]	102	97	52			
N-(3-(4-(1-(4-methylpiperazin-1-yl)-3-phenylpropyl)piperidin-1-yl)-3-oxo-1-phenylpropyl)naphthalene-2-sulfonamide [Example 113]				97	39	21
CN1CCN(C(c2ccccc2)C2CCC(NC(=O)CC3C(=O)NCCN3S(=O)(=O)c3ccc(Cl)cc3Cl)CC2)CC1 (stereo not drawn) [Example 61, 2-[1-(2,4-dichloro-benzenesulfonyl)-3-oxo-piperazin-2-yl]-N-{4-[(4-methyl-piperazin-1-yl)-phenyl-methyl]-cyclohexyl}-acetamide]	104	39	34			
O=C1Nc2ccccc2N(S(=O)(=O)c2ccc(Cl)c(Cl)c2)C1CC(=O)N1CCC(C(c2ccccc2)N2CCOCC2)CC1 (stereo not drawn) [Example 71, 4-(3,4-dichloro-benzenesulfonyl)-3-{2-[4-(morpholin-4-yl-phenyl-methyl)piperidin-1-yl]-2-oxo-ethyl}-3,4-dihydro-1H-quinoxalin-2-one]	104	32	12			
O=C(CC1CCCN1S(=O)(=O)c1ccc(Cl)c(Cl)c1)NCC1CCC(C(CCc2ccccc2)N2CCOCC2)CC1 (stereo not drawn) [Example 74, 2-[1-(3,4-dichloro-benzenesulfonyl)-pyrrolidin-2-yl]-N-[4-(1-morpholin-4-yl-3-phenyl-propyl)-cyclohexylmethyl]-acetamide]	54.7	19	7			
O=C(CC1CCCCN1S(=O)(=O)c1ccc(Cl)c(Cl)c1)N1CCC(C(c2ccccc2)N2CCOCC2)CC1 (stereo not drawn) [Example 89, 2-[1-(3,4-dichloro-benzenesulfonyl)-piperidin-2-yl]-1-[4-(morpholin-4-yl-phenylmethyl)-piperidin-1-yl]-ethanone]	16.4	26	8.5			
O=C(CC1C(=O)NCCN1S(=O)(=O)c1ccc(Cl)cc1Cl)NC1CCC(C(CCc2ccccc2)N2CCCCC2)CC1 (stereo not drawn) [Example 59, 2-[1-(2,4-dichloro-benzenesulfonyl)-3-oxo-piperazin-2-yl]-N-[4-(3-phenyl-1-piperidin-1-yl-propyl)-cyclohexyl]-acetamide]	104	27	61			
